Target: T1, human membrane progestin receptor α (hmPRα) (Homo sapiens, UniProt Q86WK9)
T1 construct: gene PAQR7; DDM-solubilized and purified over Ni-NTA, Cellufine Amino and SP-Sepharose; ~50 kDa band, theoretical 52 kDa with signal
T1 sequence (Q86WK9 1-346): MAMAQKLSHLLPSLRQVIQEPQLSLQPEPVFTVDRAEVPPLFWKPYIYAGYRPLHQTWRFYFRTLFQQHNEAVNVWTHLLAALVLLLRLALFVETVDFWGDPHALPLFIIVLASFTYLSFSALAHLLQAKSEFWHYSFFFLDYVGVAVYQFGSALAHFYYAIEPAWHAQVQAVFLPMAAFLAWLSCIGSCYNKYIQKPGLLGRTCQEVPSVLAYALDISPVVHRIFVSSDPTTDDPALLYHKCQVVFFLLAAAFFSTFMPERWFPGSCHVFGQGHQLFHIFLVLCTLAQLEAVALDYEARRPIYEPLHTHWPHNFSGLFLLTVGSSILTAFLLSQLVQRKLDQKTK
Assay: radioligand saturation filter binding, Scatchard analysis

- Kd: 5.2 nM
Compound: CC(=O)[C@H]1CC[C@H]2[C@@H]3CCC4=CC(=O)CC[C@]4(C)[C@H]3CC[C@]12C [progesterone]

Reference: publication PMC4580469, “Expression and Purification of Human Membrane Progestin Receptor α (mPRα)” (PLoS ONE, 2015)
